Measurements published in ChEMBL document CHEMBL1201862, “PubChem BioAssay data set” (2004).
The source made the active and inactive calls.

Experiments:
Large T antigen = Large T antigen (Simian virus 40, UniProt P03070); type: functional, Betapolyomavirus macacae;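 also: Confirmatory-stage PubChem screen for compounds that inhibit SV40 T antigen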
[1] = molecular target: Induced myeloid leukemia cell differentiation protein Mcl-1 (Homo sapiens, UniProt Q07820); experiment: blockers of MCL1 binding to BIM peptide – biochemical, fluorescence polarization, BIM-BH3 peptide, 1536-well, dose response (AID 2217)
Estrogen receptor beta [2] = molecular target: T1, Estrogen receptor beta (Homo sapiens, UniProt Q92731); experiment: blockers of SRC-3 recruitment to ERβ – biochemical, ELISA, streptavidin-HRP readout, orthogonal assay, confirmation (AID 1060)
Bcl-2-like protein 1 = Bcl-2-like protein 1 (Homo sapiens, UniProt Q07817); experiment: blockers of BCLXL peptide binding – biochemical, fluorescence polarization, 1536-well, selectivity assay for MCL1 inhibitor project, dose response (AID 2218)
[3] = molecular target: T2, Dual specificity protein phosphatase 6 (Rattus norvegicus, UniProt Q64346); experiment: inhibition of rat DUSP6 enzyme activity – biochemical, in vitro, primary screen (AID 425)
T2 sequence (Q64346 whole entry): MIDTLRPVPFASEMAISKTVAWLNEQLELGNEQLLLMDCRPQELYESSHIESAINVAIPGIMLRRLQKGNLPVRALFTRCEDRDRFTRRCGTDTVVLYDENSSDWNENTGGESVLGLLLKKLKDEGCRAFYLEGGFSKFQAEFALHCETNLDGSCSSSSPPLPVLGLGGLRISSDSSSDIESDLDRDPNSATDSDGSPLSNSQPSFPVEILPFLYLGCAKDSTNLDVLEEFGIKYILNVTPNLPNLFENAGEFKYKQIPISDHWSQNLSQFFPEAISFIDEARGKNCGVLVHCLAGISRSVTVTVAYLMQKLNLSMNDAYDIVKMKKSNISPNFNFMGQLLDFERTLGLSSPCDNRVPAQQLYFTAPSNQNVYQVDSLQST

Bcl-2-related protein A1 = molecular target: T3, Bcl-2-related protein A1 (Mus musculus, UniProt Q07440); type: functional;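 also: confirmatory dose–response counterscreen on Bfl-1, used to check hits from a UBC13 polyubiquitin inhibitor campaign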
T3 sequence (Q07440 whole entry): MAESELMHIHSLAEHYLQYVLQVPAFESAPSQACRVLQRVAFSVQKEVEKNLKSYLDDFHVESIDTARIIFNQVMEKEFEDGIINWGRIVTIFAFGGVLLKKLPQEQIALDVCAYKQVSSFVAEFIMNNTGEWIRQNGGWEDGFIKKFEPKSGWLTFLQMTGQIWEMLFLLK

[4] = molecular target: T4, Ubiquitin-conjugating enzyme E2 N (Homo sapiens, UniProt P61088); type: functional
T4 sequence (P61088 whole entry): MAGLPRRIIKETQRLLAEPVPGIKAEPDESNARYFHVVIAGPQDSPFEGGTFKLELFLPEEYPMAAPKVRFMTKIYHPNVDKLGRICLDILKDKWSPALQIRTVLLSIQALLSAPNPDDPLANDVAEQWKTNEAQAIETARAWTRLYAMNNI

[5] = molecular target: T4, Ubiquitin-conjugating enzyme E2 N; type: functional; remark: listed apart in the source
[6] = molecular target: T5, Histone-lysine N-methyltransferase NSD2 (Homo sapiens, UniProt O96028); type: biochemical
T5 sequence (O96028 whole entry): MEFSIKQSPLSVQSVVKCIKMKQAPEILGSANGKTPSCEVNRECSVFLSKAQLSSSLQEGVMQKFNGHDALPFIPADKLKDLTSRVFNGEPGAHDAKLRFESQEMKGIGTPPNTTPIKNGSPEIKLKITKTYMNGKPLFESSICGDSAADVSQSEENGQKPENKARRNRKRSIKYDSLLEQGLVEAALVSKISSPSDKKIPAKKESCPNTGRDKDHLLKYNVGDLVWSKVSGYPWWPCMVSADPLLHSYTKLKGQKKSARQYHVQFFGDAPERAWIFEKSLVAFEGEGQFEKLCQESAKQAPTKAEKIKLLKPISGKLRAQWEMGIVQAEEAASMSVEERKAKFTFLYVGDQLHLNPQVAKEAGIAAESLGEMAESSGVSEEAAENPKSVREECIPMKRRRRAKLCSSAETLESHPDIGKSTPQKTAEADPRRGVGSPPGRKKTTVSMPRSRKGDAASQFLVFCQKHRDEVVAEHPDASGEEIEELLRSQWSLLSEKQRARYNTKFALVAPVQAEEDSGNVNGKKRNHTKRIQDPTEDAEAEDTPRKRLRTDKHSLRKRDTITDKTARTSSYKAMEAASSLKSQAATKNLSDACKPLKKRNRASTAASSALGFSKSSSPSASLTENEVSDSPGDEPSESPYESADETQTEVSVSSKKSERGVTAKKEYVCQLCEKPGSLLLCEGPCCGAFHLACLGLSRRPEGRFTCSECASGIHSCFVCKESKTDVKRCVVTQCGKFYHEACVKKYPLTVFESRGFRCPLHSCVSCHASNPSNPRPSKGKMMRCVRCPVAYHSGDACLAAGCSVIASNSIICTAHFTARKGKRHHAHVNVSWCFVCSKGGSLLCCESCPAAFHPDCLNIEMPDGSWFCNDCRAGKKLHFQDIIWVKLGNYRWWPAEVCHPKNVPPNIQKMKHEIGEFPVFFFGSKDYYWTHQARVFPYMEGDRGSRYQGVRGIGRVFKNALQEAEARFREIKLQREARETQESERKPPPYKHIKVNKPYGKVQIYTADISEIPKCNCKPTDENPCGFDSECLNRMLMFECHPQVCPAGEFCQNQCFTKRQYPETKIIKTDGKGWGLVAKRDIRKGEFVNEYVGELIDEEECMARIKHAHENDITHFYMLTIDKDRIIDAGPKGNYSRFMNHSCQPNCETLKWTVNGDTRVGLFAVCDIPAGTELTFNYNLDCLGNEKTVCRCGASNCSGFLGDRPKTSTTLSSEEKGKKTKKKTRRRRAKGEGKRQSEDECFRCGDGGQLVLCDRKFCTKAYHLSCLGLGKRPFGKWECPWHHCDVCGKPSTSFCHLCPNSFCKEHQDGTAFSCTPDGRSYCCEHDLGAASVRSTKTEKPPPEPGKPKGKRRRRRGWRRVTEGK

[7] = HPDE-C7 pancreatic duct cell viability loss – fluorescence, HTS (AID 430); type: functional, cell-based; details: Homo sapiens
[8] = viability loss of HPDE-C7K cells – cell-based, fluorescence, HTS, primary screen (AID 431); type: functional; details: Homo sapiens
Estrogen receptor = molecular target: T6, Estrogen receptor (Homo sapiens, UniProt P03372);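 also: potency for inhibiting coactivator peptide recruitment to the receptor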
T6 sequence (P03372 whole entry): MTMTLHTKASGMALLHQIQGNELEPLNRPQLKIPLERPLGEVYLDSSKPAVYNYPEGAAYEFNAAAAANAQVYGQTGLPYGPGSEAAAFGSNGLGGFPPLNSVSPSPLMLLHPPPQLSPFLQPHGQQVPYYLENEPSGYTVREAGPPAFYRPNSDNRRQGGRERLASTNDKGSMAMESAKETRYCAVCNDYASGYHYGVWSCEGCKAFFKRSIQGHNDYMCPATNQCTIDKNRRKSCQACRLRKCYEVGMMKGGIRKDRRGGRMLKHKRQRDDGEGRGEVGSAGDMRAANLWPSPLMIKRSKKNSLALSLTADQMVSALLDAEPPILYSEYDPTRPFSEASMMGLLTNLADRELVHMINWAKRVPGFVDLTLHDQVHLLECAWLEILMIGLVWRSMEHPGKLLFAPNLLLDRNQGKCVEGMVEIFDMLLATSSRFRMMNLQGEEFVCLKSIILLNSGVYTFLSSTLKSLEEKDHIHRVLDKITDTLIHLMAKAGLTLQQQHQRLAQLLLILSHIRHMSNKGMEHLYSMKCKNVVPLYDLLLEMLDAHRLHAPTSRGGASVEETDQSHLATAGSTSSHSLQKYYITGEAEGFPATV

Estrogen receptor beta [9] = molecular target: T1, Estrogen receptor beta
[10] = molecular target: T7, Carboxy-terminal domain RNA polymerase II polypeptide A small phosphatase 1 (Homo sapiens, UniProt Q9GZU7); experiment: CTDSP1 inhibitors, concentration-response, biochemical, absorbance readout, ultra-high-throughput screen actives (AID 540297); type: functional
T7 sequence (Q9GZU7 whole entry): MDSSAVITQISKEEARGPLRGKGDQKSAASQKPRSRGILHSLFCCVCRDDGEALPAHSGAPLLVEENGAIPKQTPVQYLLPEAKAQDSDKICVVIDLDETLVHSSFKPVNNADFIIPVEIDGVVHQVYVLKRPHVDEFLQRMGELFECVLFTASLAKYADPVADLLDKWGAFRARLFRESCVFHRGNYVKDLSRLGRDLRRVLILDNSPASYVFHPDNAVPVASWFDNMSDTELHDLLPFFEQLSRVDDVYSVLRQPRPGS

Leucine aminopeptidase = Leucine aminopeptidase (Plasmodium falciparum 3D7, UniProt Q8IL11); experiment: P. falciparum M17LAP inhibitors, primary screen, biochemical, fluorogenic H-Leu-NHMec substrate, 1536-well (AID 1619); type: functional
[11] = Luminescence Cell-Based Dose Confirmation HTS to Identify Inhibitors of Polyadenylation.; type: functional
[12] = molecular target: T8, Mannose-6-phosphate isomerase (Homo sapiens, UniProt P34949); experiment: MPI inhibition at elevated mannose 6-phosphate – biochemical, fluorescence intensity, high mannose 6-phosphate, primary screen (AID 1220)
T8 sequence (P34949 whole entry): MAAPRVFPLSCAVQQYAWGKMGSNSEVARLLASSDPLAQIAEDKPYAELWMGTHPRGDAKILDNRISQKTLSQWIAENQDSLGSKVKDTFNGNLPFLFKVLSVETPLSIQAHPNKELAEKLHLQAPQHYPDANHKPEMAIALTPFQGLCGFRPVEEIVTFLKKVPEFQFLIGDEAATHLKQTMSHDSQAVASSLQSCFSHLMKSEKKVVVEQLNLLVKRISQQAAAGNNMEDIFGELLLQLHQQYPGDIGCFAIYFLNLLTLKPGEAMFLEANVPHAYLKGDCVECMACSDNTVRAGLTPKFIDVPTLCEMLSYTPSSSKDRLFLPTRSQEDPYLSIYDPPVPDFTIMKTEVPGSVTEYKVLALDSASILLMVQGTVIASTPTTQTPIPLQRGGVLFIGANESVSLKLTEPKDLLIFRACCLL

[13] = molecular target: Glucose-6-phosphate 1-dehydrogenase (Homo sapiens, UniProt P11413); experiment: inhibition of Homo sapiens G6PD, dose series – biochemical, fluorescence, selectivity assay for P. falciparum G6PD inhibitor project, dose response (AID 504792); type: functional
Genome polyprotein = Genome polyprotein (dengue virus type 2, UniProt P29990); experiment: flavivirus cap methylation enzyme inhibition – biochemical, confirmation dose response, primary screen (AID 588689); type: functional
Albumin = Albumin (Bos taurus, UniProt P02769); experiment: Counterscreen for inhibitors of T-cell receptor (TCR)-CD3 interaction: Fluorescence-based biochemical high throughput dose response assay to identify inhibitors of T-cell receptor (TCR)-CD3 interaction using a TAMRA-labeled BSA probe.; type: functional
[14] = molecular target: Intestinal-type alkaline phosphatase (Mus musculus, UniProt P24822); experiment: PubChem AID 488785; type: functional
[15] = molecular target: T9, Alkaline phosphatase, tissue-nonspecific isozyme (Homo sapiens, UniProt P05186); experiment: TNAP enzyme inhibition by screening hits, dose response, selectivity assay for mouse IAP inhibitor project, biochemical, human TNAP, uHTS hits (AID 488906); type: functional
T9 sequence (P05186 whole entry): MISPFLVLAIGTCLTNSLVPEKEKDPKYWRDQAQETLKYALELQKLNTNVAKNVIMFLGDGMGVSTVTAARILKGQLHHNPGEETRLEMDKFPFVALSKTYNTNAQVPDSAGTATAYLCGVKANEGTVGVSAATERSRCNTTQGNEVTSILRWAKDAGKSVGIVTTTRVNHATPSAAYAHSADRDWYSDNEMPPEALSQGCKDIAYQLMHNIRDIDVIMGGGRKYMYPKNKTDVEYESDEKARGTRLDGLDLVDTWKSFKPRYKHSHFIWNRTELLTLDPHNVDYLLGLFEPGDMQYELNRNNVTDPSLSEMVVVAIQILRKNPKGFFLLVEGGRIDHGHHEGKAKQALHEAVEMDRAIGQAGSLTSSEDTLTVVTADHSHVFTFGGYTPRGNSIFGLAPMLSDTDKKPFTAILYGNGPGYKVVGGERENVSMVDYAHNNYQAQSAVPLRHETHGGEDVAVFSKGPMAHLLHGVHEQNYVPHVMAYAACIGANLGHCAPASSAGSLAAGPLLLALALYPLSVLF

[16] = molecular target: Intestinal-type alkaline phosphatase (Homo sapiens, UniProt P09923); experiment: inhibition of human intestinal alkaline phosphatase – biochemical, dose response (AID 488876); type: functional
Chain of Intestinal-type alkaline phosphatase (Homo sapiens, UniProt P09923) (P09923 whole entry): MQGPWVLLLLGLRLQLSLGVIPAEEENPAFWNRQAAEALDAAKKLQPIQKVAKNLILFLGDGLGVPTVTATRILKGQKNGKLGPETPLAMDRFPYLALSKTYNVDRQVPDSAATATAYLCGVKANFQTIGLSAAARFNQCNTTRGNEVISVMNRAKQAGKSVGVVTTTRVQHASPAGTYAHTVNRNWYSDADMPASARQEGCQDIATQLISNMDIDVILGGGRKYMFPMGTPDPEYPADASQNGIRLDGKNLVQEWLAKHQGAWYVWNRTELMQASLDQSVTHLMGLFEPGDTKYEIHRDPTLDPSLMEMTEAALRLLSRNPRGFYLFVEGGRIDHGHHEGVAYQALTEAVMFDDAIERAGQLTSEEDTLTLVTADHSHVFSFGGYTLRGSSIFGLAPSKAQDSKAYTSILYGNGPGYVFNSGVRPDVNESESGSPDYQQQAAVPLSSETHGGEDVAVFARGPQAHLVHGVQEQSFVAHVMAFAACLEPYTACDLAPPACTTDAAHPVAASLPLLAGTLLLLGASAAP

T1 sequence (Q92731 whole entry): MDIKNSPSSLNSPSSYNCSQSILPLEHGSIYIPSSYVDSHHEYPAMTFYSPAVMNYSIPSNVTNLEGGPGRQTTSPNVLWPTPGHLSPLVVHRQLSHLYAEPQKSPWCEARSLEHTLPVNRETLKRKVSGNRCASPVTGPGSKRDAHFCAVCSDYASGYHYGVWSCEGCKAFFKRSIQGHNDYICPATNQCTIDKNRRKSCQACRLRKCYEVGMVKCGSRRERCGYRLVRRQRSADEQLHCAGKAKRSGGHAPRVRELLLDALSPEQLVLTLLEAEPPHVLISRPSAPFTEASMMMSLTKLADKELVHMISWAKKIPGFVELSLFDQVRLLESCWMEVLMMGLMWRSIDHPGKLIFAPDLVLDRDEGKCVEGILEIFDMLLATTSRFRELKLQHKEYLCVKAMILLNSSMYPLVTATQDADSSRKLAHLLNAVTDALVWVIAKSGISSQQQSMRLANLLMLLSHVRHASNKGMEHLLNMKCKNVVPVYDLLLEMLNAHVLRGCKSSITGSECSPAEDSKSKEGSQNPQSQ
Chain of Induced myeloid leukemia cell differentiation protein Mcl-1 (Q07820 whole entry): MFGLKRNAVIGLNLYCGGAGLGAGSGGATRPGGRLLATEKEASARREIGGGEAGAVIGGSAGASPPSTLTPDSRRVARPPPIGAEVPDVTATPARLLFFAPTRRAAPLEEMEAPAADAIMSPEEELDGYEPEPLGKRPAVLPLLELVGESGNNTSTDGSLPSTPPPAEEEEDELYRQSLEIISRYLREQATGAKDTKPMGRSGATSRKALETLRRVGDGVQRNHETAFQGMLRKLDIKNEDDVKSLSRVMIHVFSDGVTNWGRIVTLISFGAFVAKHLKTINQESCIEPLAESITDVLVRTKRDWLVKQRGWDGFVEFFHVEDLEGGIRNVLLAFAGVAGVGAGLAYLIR
Chain of Bcl-2-like protein 1 (Q07817 whole entry): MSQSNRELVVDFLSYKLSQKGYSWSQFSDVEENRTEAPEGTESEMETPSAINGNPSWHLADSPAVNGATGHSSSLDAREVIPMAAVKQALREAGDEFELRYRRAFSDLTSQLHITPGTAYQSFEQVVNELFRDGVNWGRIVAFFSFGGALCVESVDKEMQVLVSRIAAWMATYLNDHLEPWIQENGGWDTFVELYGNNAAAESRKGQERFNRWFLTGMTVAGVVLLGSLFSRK
Chain of Glucose-6-phosphate 1-dehydrogenase (P11413 whole entry): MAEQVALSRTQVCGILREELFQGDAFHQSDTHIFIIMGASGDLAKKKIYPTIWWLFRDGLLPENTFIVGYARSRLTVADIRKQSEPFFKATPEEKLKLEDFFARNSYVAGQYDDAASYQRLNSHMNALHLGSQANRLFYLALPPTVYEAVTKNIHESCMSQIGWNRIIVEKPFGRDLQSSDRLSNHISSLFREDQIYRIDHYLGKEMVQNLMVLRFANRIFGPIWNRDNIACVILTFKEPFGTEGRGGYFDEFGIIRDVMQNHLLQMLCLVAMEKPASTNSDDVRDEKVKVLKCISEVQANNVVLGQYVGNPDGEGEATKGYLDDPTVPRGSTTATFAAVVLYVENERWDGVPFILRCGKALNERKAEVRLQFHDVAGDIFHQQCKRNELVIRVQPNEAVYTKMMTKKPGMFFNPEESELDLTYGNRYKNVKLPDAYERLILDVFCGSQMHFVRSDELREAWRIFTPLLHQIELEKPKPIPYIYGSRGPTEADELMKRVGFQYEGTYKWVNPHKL
Chain of Leucine aminopeptidase (Q8IL11 whole entry): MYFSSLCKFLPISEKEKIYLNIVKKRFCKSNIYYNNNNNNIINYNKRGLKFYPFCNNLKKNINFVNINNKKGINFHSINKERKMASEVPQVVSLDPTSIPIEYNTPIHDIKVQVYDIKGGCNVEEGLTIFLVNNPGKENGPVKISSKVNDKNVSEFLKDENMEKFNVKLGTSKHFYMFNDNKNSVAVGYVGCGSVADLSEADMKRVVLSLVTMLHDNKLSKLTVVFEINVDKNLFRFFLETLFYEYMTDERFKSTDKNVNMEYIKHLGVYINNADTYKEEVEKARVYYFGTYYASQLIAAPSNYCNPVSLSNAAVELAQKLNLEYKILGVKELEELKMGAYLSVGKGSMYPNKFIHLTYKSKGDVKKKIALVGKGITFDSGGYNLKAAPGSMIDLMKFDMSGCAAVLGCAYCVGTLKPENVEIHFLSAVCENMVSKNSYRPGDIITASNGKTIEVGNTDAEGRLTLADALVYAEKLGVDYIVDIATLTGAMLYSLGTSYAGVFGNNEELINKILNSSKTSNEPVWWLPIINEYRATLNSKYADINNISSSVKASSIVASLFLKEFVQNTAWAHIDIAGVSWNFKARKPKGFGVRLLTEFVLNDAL
Chain of Albumin (P02769 whole entry): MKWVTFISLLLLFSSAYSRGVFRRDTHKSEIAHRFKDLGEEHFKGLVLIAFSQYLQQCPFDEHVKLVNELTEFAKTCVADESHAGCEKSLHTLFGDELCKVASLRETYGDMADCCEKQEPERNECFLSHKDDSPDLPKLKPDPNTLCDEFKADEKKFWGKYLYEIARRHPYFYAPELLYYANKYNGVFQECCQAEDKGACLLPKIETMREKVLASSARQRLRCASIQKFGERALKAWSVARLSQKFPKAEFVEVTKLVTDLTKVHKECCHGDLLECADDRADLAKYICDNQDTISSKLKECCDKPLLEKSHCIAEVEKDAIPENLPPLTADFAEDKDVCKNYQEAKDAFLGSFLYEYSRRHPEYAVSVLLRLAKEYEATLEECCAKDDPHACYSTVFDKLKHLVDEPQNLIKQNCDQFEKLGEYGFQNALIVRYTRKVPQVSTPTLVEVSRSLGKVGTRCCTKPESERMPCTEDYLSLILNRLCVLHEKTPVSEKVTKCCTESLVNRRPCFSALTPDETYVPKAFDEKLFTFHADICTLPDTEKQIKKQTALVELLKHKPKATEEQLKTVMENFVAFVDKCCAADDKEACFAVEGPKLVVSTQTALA
Chain of Large T antigen (P03070 whole entry): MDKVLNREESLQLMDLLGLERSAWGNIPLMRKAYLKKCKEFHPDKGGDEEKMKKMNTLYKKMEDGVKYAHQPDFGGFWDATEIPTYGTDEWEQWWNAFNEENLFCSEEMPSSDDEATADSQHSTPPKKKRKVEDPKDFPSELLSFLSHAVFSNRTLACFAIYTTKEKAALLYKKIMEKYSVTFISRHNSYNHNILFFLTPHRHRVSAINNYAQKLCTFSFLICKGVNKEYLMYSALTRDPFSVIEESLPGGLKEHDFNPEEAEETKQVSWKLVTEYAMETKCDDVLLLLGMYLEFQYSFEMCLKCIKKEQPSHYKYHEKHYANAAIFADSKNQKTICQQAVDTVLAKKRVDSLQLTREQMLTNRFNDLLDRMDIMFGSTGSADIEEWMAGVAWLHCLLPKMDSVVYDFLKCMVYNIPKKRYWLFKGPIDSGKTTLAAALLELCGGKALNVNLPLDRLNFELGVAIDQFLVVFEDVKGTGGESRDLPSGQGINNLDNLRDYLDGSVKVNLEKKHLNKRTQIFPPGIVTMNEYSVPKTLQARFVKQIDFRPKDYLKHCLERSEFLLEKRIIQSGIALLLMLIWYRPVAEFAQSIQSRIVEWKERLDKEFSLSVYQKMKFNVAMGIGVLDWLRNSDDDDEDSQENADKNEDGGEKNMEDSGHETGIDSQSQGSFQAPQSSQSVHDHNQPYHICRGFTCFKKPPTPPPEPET
Chain of Genome polyprotein (P29990 2492-3391 limits assumed): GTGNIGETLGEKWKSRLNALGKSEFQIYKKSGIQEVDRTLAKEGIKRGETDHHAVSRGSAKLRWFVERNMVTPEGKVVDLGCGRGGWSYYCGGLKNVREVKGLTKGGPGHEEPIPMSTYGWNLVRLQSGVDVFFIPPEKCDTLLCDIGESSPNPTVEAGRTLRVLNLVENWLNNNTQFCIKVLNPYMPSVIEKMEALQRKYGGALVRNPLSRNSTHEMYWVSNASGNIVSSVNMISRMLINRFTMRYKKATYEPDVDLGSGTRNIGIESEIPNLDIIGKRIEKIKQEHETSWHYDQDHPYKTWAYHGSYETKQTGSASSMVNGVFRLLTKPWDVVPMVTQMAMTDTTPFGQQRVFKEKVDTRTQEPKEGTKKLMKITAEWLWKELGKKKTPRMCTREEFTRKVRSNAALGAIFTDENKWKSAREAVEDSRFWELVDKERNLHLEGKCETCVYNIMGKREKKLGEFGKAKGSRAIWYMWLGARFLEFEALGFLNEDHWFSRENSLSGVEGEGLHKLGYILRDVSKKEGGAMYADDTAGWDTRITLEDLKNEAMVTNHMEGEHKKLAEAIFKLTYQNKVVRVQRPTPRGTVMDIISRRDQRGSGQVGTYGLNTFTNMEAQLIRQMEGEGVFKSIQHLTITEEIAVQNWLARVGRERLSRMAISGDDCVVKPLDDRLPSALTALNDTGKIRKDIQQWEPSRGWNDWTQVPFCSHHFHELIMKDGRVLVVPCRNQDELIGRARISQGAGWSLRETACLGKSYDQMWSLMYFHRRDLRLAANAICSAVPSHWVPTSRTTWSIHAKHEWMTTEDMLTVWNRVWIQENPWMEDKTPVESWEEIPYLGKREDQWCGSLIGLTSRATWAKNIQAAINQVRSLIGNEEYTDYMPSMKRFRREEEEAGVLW

c1coc(-c2nc(-c3ccco3)c(-c3ccco3)nc2-c2ccco2)c1
IC50 (Large T antigen): 76.4 µM (active) | IC50 [1]: > 1.34 µM (active) | IC50 (Estrogen receptor beta [2]): > 50 µM (not active) | IC50 (Bcl-2-like protein 1): > 109 µM (not active) | IC50 [3]: > 10 µM (not active) | IC50 (Bcl-2-related protein A1): 0.36 µM (active) | IC50 [4]: 3.79 µM (active) | IC50 [5]: 8.49 µM (active) | AC50 [6]: > 20 µM (inactive)

Cc1ccc(C(=O)Nc2cccc(C(=O)NCc3ccccc3)c2)o1
EC50 [7]: 16.6 µM (active) | EC50 [8]: 12.4 µM (active)

CC1CCN(S(=O)(=O)c2ccc(NC(=O)Cc3cccs3)cc2)CC1
IC50 (Estrogen receptor): 9.49 µM (active) | IC50 (Estrogen receptor beta [9]): 5.52 µM (active) | IC50 (Estrogen receptor beta [2]): 0.127 µM (not active) | IC50 [10]: 3.87 µM (active)

CCCCc1ccc(C(=O)NC(C(=O)O)C(C)C)cc1 (stereo unspecified)
IC50 (Leucine aminopeptidase): 4.71 µM (active)

Cc1ccc2nc(-c3cccc(NC(=O)c4ccc5c(c4)OCCO5)c3)oc2c1
EC50 [7]: 6.12 µM (active) | EC50 [8]: 6.12 µM (active)

O=C(COC(=O)Cc1ccc(S(=O)(=O)N2CCOCC2)s1)NCc1ccccc1
EC50 [11]: 39.8 µM (active)

O=C(CCc1ccc(S(=O)(=O)N2CCOCC2)cc1)N/N=C/c1ccc(O)c(O)c1O
IC50 [1]: 2.33 µM (active) | IC50 (Bcl-2-like protein 1): > 109 µM (not active) | IC50 [12]: 16.4 µM (active) | IC50 [13]: 48.7 µM (inactive) | IC50 (Genome polyprotein): 51.3 µM (active) | IC50 (Albumin): > 94.1 µM (inactive)

CN(c1ccccc1C(=O)O)S(=O)(=O)c1ccc2c3c(cccc13)C(=O)N2
IC50 (Estrogen receptor): 18.7 µM (active) | IC50 (Estrogen receptor beta [9]): 3.85 µM (active) | IC50 (Estrogen receptor beta [2]): 6.16 µM (not active) | IC50 [14]: 11.3 µM (active) | IC50 [15]: > 100 µM (inactive) | IC50 [16]: > 100 µM (inactive)
